Data taken from PubChem BioAssay (NCI).
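48-hour exposure; five concentrations; linearly interpolated endpoints. TGI: total growth inhibition.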

Experiments:
Test in all cases: NCI-60 cell line screen, 48 h
COLO 205 colon = system: COLO 205 colon
IGROV1 ovarian = system: IGROV1 ovarian
MDA-MB-435 = system: MDA-MB-435
RPMI-8226 leukemia = system: RPMI-8226 leukemia
SF-295 CNS = system: SF-295 CNS
SK-MEL-2 melanoma = system: SK-MEL-2 melanoma
U251 CNS = system: U251 CNS
UACC-62 melanoma = system: UACC-62 melanoma
A498 renal = system: A498 renal
NCI/ADR-RES ovarian = system: NCI/ADR-RES ovarian
SK-OV-3 ovarian = system: SK-OV-3 ovarian

CN1CCN(C(=S)N(C)C(=O)c2ccc(Cl)cc2)CC1
TGI (COLO 205 colon): > 100 µM
TGI (IGROV1 ovarian): > 100 µM
TGI (MDA-MB-435): > 100 µM
TGI (RPMI-8226 leukemia): > 100 µM
TGI (SF-295 CNS): > 100 µM
TGI (SK-MEL-2 melanoma): > 100 µM
TGI (U251 CNS): > 100 µM
TGI (UACC-62 melanoma): > 100 µM

CCn1c(=O)c2c3cc(O)ccc3oc2c2ccc(O)cc21
TGI (A498 renal): 55.5 µM
TGI (COLO 205 colon): 43.9 µM
TGI (IGROV1 ovarian): > 100 µM
TGI (MDA-MB-435): > 100 µM
TGI (NCI/ADR-RES ovarian): > 100 µM
TGI (SF-295 CNS): > 100 µM
TGI (SK-OV-3 ovarian): > 100 µM
TGI (U251 CNS): > 100 µM
TGI (UACC-62 melanoma): > 100 µM

COC1C=CC23c4cc5c(cc4C(O)OC2CN(C)C3C1)OCO5 (configuration not stated)
TGI (A498 renal): 9.89 µM
TGI (COLO 205 colon): 2.99 µM
TGI (IGROV1 ovarian): 22.3 µM
TGI (RPMI-8226 leukemia): 8.34 µM
TGI (SF-295 CNS): 9.59 µM
TGI (UACC-62 melanoma): 58.8 µM

COc1cccc(C2c3cc4c(cc3OC(N3CCCC3)C2C)OCO4)c1OC (configuration not stated)
TGI (COLO 205 colon): 19.4 µM
TGI (IGROV1 ovarian): 16.6 µM
TGI (MDA-MB-435): 14.3 µM
TGI (NCI/ADR-RES ovarian): 15 µM
TGI (RPMI-8226 leukemia): 13.2 µM
TGI (SF-295 CNS): 12.4 µM
TGI (SK-MEL-2 melanoma): 17.1 µM
TGI (UACC-62 melanoma): 34.5 µM

C=CCCCC12CCCc3cccc(c31)NC2=O (configuration not stated)
TGI (A498 renal): 45.6 µM
TGI (COLO 205 colon): 40.4 µM
TGI (IGROV1 ovarian): 33.8 µM
TGI (RPMI-8226 leukemia): 47.3 µM
TGI (SF-295 CNS): > 100 µM
TGI (SK-MEL-2 melanoma): 55.5 µM
TGI (SK-OV-3 ovarian): 45.3 µM
TGI (U251 CNS): 50.3 µM
TGI (UACC-62 melanoma): 31.3 µM

COc1ccc(NC2Oc3cc4c(cc3C(c3cc(OC)c(OC)c(OC)c3)C2C)OCO4)cc1 (configuration not stated)
TGI (A498 renal): 0.92 µM
TGI (COLO 205 colon): 2.96 µM
TGI (IGROV1 ovarian): > 100 µM
TGI (MDA-MB-435): 0.565 µM
TGI (RPMI-8226 leukemia): > 83 µM
TGI (SF-295 CNS): 0.971 µM
TGI (SK-MEL-2 melanoma): > 100 µM
TGI (SK-OV-3 ovarian): > 100 µM
TGI (U251 CNS): 11.6 µM
TGI (UACC-62 melanoma): > 100 µM

CCN(CCCN(CC)C(=O)N[C@@H](Cc1ccccc1)C(=O)NC)C(=O)N[C@@H](Cc1ccccc1)C(=O)NC
TGI (A498 renal): > 100 µM
TGI (COLO 205 colon): > 100 µM
TGI (MDA-MB-435): > 100 µM
TGI (NCI/ADR-RES ovarian): > 100 µM
TGI (SF-295 CNS): > 100 µM
TGI (SK-MEL-2 melanoma): > 100 µM
TGI (SK-OV-3 ovarian): > 100 µM
TGI (U251 CNS): > 100 µM
TGI (UACC-62 melanoma): > 100 µM

Cc1ccc(C2=Nc3c(c(C)nn3-c3ccccc3)N=C(C(=O)O)C2)cc1
TGI (A498 renal): > 10 µM
TGI (COLO 205 colon): > 10 µM
TGI (IGROV1 ovarian): > 10 µM
TGI (MDA-MB-435): > 10 µM
TGI (NCI/ADR-RES ovarian): > 10 µM
TGI (SF-295 CNS): > 10 µM
TGI (SK-MEL-2 melanoma): > 10 µM
TGI (SK-OV-3 ovarian): > 10 µM
TGI (U251 CNS): > 10 µM
TGI (UACC-62 melanoma): > 10 µM

O=C1CC(c2ccc([N+](=O)[O-])cc2)C2(C(=O)NC(=S)NC2=O)C(c2ccc([N+](=O)[O-])cc2)C1 (configuration not stated)
TGI (A498 renal): 85 µM
TGI (COLO 205 colon): > 100 µM
TGI (IGROV1 ovarian): 45.2 µM
TGI (MDA-MB-435): 40.4 µM
TGI (NCI/ADR-RES ovarian): > 100 µM
TGI (RPMI-8226 leukemia): > 100 µM
TGI (SF-295 CNS): 60.1 µM
TGI (SK-OV-3 ovarian): > 100 µM
TGI (U251 CNS): 37 µM
TGI (UACC-62 melanoma): 32.6 µM

CC(C)c1c(P(=O)(c2ccccc2)c2ccccc2)n(C)c2ccccc12
TGI (A498 renal): > 100 µM
TGI (COLO 205 colon): > 100 µM
TGI (MDA-MB-435): > 100 µM
TGI (NCI/ADR-RES ovarian): > 100 µM
TGI (RPMI-8226 leukemia): > 100 µM
TGI (SF-295 CNS): > 100 µM
TGI (SK-MEL-2 melanoma): > 100 µM
TGI (U251 CNS): > 100 µM

O=C(CCc1ccc(O)cc1)c1c(O)cc(O)cc1OC1OC(CO)C(O)C(O)C1O (configuration not stated)
TGI (A498 renal): > 100 µM
TGI (COLO 205 colon): > 100 µM
TGI (IGROV1 ovarian): > 100 µM
TGI (MDA-MB-435): > 100 µM
TGI (NCI/ADR-RES ovarian): > 100 µM
TGI (SF-295 CNS): > 100 µM
TGI (SK-MEL-2 melanoma): > 100 µM
TGI (SK-OV-3 ovarian): > 100 µM
TGI (UACC-62 melanoma): > 100 µM

O=C1/C(=C/c2ccc(F)cc2)CNC/C1=C\c1ccc(F)cc1
TGI (A498 renal): 4.33 µM
TGI (COLO 205 colon): 3.42 µM
TGI (IGROV1 ovarian): 2.52 µM
TGI (MDA-MB-435): 7.51 µM
TGI (SF-295 CNS): 6.19 µM
TGI (SK-MEL-2 melanoma): 29 µM
TGI (SK-OV-3 ovarian): 29.6 µM
TGI (U251 CNS): 1.39 µM

COC(c1ccc(C(C)(C)C)cc1)(c1ccc(C(C)(C)C)cc1)c1cc(C(O)(c2cc(C(OC)(c3ccc(C(C)(C)C)cc3)c3ccc(C(C)(C)C)cc3)c(C)cc2C)c2cc(C(OC)(c3ccc(C(C)(C)C)cc3)c3ccc(C(C)(C)C)cc3)c(C)cc2C)c(C)cc1C
TGI (A498 renal): > 100 µM
TGI (COLO 205 colon): > 100 µM
TGI (IGROV1 ovarian): > 100 µM
TGI (MDA-MB-435): > 100 µM
TGI (NCI/ADR-RES ovarian): > 100 µM
TGI (SF-295 CNS): > 100 µM
TGI (SK-MEL-2 melanoma): > 100 µM
TGI (SK-OV-3 ovarian): > 100 µM
TGI (U251 CNS): > 100 µM
TGI (UACC-62 melanoma): > 100 µM

O=C1/C(=C/c2ccc(Br)s2)NC(=S)N1CN1CCOCC1
TGI (A498 renal): > 100 µM
TGI (COLO 205 colon): 87.9 µM
TGI (IGROV1 ovarian): > 100 µM
TGI (MDA-MB-435): > 100 µM
TGI (NCI/ADR-RES ovarian): > 100 µM
TGI (RPMI-8226 leukemia): 43 µM
TGI (SF-295 CNS): > 100 µM
TGI (SK-MEL-2 melanoma): > 100 µM
TGI (U251 CNS): > 100 µM
TGI (UACC-62 melanoma): 48.6 µM

O=C(OCc1ccccc1)OOC(=O)OCc1ccccc1
TGI (A498 renal): > 100 µM
TGI (COLO 205 colon): > 100 µM
TGI (IGROV1 ovarian): > 100 µM
TGI (RPMI-8226 leukemia): > 100 µM
TGI (SF-295 CNS): > 100 µM
TGI (SK-MEL-2 melanoma): > 100 µM
TGI (SK-OV-3 ovarian): > 100 µM
TGI (U251 CNS): > 100 µM
TGI (UACC-62 melanoma): > 100 µM

Cc1nc2ccc([N+](=O)[O-])cc2c(=O)n1C(=S)Nc1cccc(Cl)c1
TGI (A498 renal): 45.9 µM
TGI (COLO 205 colon): 31.6 µM
TGI (MDA-MB-435): 41.2 µM
TGI (NCI/ADR-RES ovarian): 89.7 µM
TGI (RPMI-8226 leukemia): 19.6 µM
TGI (SF-295 CNS): 53.6 µM
TGI (SK-MEL-2 melanoma): 23.9 µM
TGI (SK-OV-3 ovarian): 71.8 µM
TGI (U251 CNS): 66.9 µM
TGI (UACC-62 melanoma): 29.1 µM

CCN(CC)CCCn1c(=O)c2cccnc2n2c3c(=O)n(C)c(=O)n(C)c3nc12
TGI (COLO 205 colon): > 100 µM
TGI (IGROV1 ovarian): > 100 µM
TGI (MDA-MB-435): > 100 µM
TGI (NCI/ADR-RES ovarian): > 100 µM
TGI (RPMI-8226 leukemia): > 100 µM
TGI (SF-295 CNS): > 100 µM
TGI (SK-MEL-2 melanoma): > 100 µM
TGI (SK-OV-3 ovarian): > 100 µM
TGI (U251 CNS): > 100 µM
TGI (UACC-62 melanoma): > 100 µM

CC(C)CCNC(=O)c1ccc(CNC(=O)/C=C/c2ccc(OCc3ccccc3)cc2)cc1
TGI (A498 renal): > 100 µM
TGI (COLO 205 colon): > 100 µM
TGI (MDA-MB-435): > 100 µM
TGI (NCI/ADR-RES ovarian): > 100 µM
TGI (RPMI-8226 leukemia): > 100 µM
TGI (SF-295 CNS): > 100 µM
TGI (SK-MEL-2 melanoma): > 100 µM
TGI (SK-OV-3 ovarian): > 100 µM
TGI (U251 CNS): > 100 µM
TGI (UACC-62 melanoma): > 100 µM

CC(=O)Nc1ccc(Cl)c(Cl)c1
TGI (COLO 205 colon): > 100 µM
TGI (IGROV1 ovarian): > 100 µM
TGI (RPMI-8226 leukemia): > 100 µM
TGI (SF-295 CNS): > 100 µM
TGI (SK-OV-3 ovarian): > 100 µM
TGI (U251 CNS): > 100 µM
TGI (UACC-62 melanoma): > 100 µM

Nc1ncnc2c1ncn2C(=O)NC12CC3CC(CC(C3)C1)C2
TGI (A498 renal): > 100 µM
TGI (COLO 205 colon): > 100 µM
TGI (MDA-MB-435): > 100 µM
TGI (NCI/ADR-RES ovarian): > 100 µM
TGI (RPMI-8226 leukemia): > 100 µM
TGI (SF-295 CNS): > 100 µM
TGI (SK-MEL-2 melanoma): > 100 µM
TGI (SK-OV-3 ovarian): > 100 µM
TGI (U251 CNS): > 100 µM
TGI (UACC-62 melanoma): > 100 µM

CO/N=C1/c2sccc2[C@H](NC(=O)CNC(=O)OC(C)(C)C)[C@@H]1O
TGI (A498 renal): > 100 µM
TGI (COLO 205 colon): > 100 µM
TGI (IGROV1 ovarian): > 100 µM
TGI (MDA-MB-435): > 100 µM
TGI (NCI/ADR-RES ovarian): > 100 µM
TGI (SF-295 CNS): > 100 µM
TGI (SK-MEL-2 melanoma): > 100 µM
TGI (SK-OV-3 ovarian): > 100 µM
TGI (U251 CNS): > 100 µM
TGI (UACC-62 melanoma): > 100 µM

O=C1C(Cl)N(c2ccccc2)C1c1c[nH]c2ccccc12 (configuration not stated)
TGI (COLO 205 colon): > 100 µM
TGI (IGROV1 ovarian): > 100 µM
TGI (RPMI-8226 leukemia): > 100 µM
TGI (SF-295 CNS): > 100 µM
TGI (SK-MEL-2 melanoma): > 100 µM
TGI (SK-OV-3 ovarian): > 100 µM
TGI (U251 CNS): > 100 µM
TGI (UACC-62 melanoma): > 100 µM

CSc1c(C(=O)Nc2ccc(C)cc2)c(N)[nH]c(=O)c1C#N
TGI (A498 renal): > 100 µM
TGI (COLO 205 colon): > 100 µM
TGI (MDA-MB-435): > 100 µM
TGI (NCI/ADR-RES ovarian): > 100 µM
TGI (RPMI-8226 leukemia): > 100 µM
TGI (SK-MEL-2 melanoma): > 100 µM
TGI (SK-OV-3 ovarian): > 100 µM
TGI (U251 CNS): > 100 µM
TGI (UACC-62 melanoma): > 100 µM
